Drawing on patent US12528790B2, “Amide derivative having antiviral activity” (Shionogi & Co., Ltd., priority 2020, dated 2026), this text covers EC50 for 37 molecules.

Molecules are shown by their SMILES.

The subject of the first assay is RSV A2 strain. Description: In vitro CPE (CytoPathic Effect) inhibition effect evaluation test, RSV type A. The format is cell-based. The following applies: human respiratory syncytial virus, HEp-2. The method, boiled down:
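HEp-2 cells (2.4×10^5 cells/mL, 2% FBS E-MEM) were infected with RSV alongside 3-fold compound dilutions and incubated at 37 °C, 4 days for A2 and 5 days for B Wash/18537. Viable cells quantified by CellTiter-Glo 2.0 luminescence; EC50 by nonlinear regression as 50% CPE inhibition.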
Turning to `O=C(NC1(C(=O)O)C2CC3CC(C2)CC1C3)c1cnc(N2CC3(CCOCC3)c3cc(O[C@@H]4C[C@H]5CC[C@@H](C4)N5)ccc32)nc1C(F)(F)F` (stereo partly shown) [Compound I-212], the EC50 lay within 0.1 to 5 µM.

Staying with this assay, now noted: human respiratory syncytial virus; inhibitory effect against RSV type A (RSV A2 strain), HEp-2 cells, CPE inhibition; read-out: EC50.
Regarding `O=C(NC1(C(=O)O)C2CC3CC(C2)CC1C3)c1cnc(-c2cn(C3CCC(F)(F)CC3)c3cc(OC4CCN(C5CCOCC5)CC4)ccc23)nc1C(F)(F)F` (stereo not shown) [Compound I-242], the EC50 was less than 0.01 µM.
On the same count and under the same terms, in the case of `Cc1ccc2c(c1)C1(CCNCC1)CN2c1ncc(C(=O)NC2(C(=O)O)C3CC4CC(C3)CC2C4)c(C(F)(F)F)n1` (stereo not shown) [Compound I-134] it was less than 0.01 µM.
On to `Cc1nsc(COc2ccc3c(c2)CCN3c2ncc(C(=O)NC3(C(=O)O)CCCCC3)c(C(F)(F)F)n2)n1` [Compound I-43], for which the EC50 lay in the range of 0.01 to 0.1 µM.
The same measure, in the same setting: to `O=C(NC1(C(=O)O)CCCCC1)c1cnc(N2CCc3cc(OCC4CN(c5ncccn5)CCO4)ccc32)nc1C(F)(F)F` (racemic) [Compound I-66] belongs 0.01 to 0.1 µM; to `CC(NC(=O)c1cnc(-c2cn(C3CCC(F)(F)CC3)c3cc(OC4CCN(c5ncccn5)CC4)ccc23)nc1C(F)(F)F)(C(=O)O)C1CCCCC1` (racemic) [Compound I-267], less than 0.01 µM.
Consider `CCNC(=O)N1CCC(Oc2ccc3c(c2)CCN3c2ncc(C(=O)NC3(C(=O)O)CCCCC3)c(C(F)(F)F)n2)CC1` [Compound I-112], for which the EC50 is 0.01 to 0.1 µM.
As for `COc1cccc(COc2ccc3c(c2)CCN3c2ncc(C(=O)NC3(C(=O)O)CCOCC3)c(C(F)(F)F)n2)c1` [Compound I-14], the EC50 lay within 0.1 to 5 µM.
Turning to `O=C(NC1(C(=O)O)C2CC3CC(C2)CC1C3)c1cnc(-c2cn(C3CCC(F)(F)CC3)c3cc(OC4CCN(c5ncc(F)s5)CC4)ccc23)nc1C(F)(F)F` (stereo not shown) [Compound I-420], the EC50 was less than 0.01 µM.
Still for that read-out and setting: in the case of `O=C(NC1(C(=O)O)C2CC3CC(C2)CC1C3)c1cnc(N2CC3(C=CCC3)c3cc(OC4CCN(c5ncccn5)CC4)ccc32)nc1C(F)(F)F` (racemic) [Compound I-243] it was less than 0.01 µM.
On to `NC(=O)[C@@]1(NC(=O)c2cnc(N3CC4(CCOCC4)c4cc(OC5CCN(c6ncccn6)CC5)ccc43)nc2C(F)(F)F)[C@@H]2CC3C[C@H]1C[C@@](F)(C3)C2` [Compound I-166], for which the EC50 was less than 0.01 µM.
As to `CNC(=O)C1(NC(=O)c2cnc(N3CC4(CCOCC4)c4cc(OC5CCN(c6ncccn6)CC5)ccc43)nc2C(F)(F)F)C2CC3CC(C2)CC1C3` (stereo not shown) [Compound I-173], the EC50 is 0.01 to 0.1 µM.
Regarding `O=C(NC1(C(=O)O)C2CC3CC(C2)CC1C3)c1cnc(N2CC3(CCOCC3)c3cc(OCC(O)C(F)(F)F)ccc32)nc1C(F)(F)F` (racemic) [Compound I-458], the EC50 is less than 0.01 µM.
Turning to `O=C(NC1(C(=O)O)C2CC3CC(C2)CC1C3)c1cnc(N2CC3(CCCC3)c3cc(O[C@H]4CC[C@H](N5CC(F)(F)C5)CC4)ccc32)nc1C(F)(F)F` (stereo partly shown) [Compound I-462], the EC50 was less than 0.01 µM.
With `O=C(NC1(C(=O)O)CCCCC1)c1cnc(N2CC3(CC3)c3cc(Br)ccc32)nc1C(F)(F)F` [Compound I-10], the EC50 fell in the range of 0.1 to 5 µM.
As for `O=C(NC1(C(=O)O)CCCCC1)c1cnc(N2CCc3cc(C4=CCCN(Cc5ccccc5)C4)ccc32)nc1C(F)(F)F` [Compound I-70], the EC50 was in the range of 0.01 to 0.1 µM.
`O=C(NC1(C(=O)O)C2CC3CC(C2)CC1C3)c1cnc(N2CC3(CCOCC3)c3cc(CCCC4CCOCC4)ccc32)nc1C(F)(F)F` (stereo not shown) [Compound I-114]: the EC50 was less than 0.01 µM.
As to `O=C(NC1(C(=O)O)C2CC3CC(C2)CC1C3)c1cnc(N2CC3(CCOCC3)c3cc(-c4ccccc4)ccc32)nc1C(F)(F)F` (stereo not shown) [Compound I-279], the EC50 is less than 0.01 µM.
`O=C(NC1(C(=O)O)CCCCC1)c1cnc(N2CCc3cc(OC4CCN(c5nccs5)CC4)ccc32)nc1C(F)(F)F` [Compound I-42]: the EC50 was less than 0.01 µM.
The same measure, in the same setting: to `COc1ccc2c(c1)CCN2c1ccc(C(=O)NC2(C(=O)O)C3CC4CC(C3)CC2C4)c(C(F)(F)F)c1` (stereo not shown) [Compound I-124] belongs 0.01 to 0.1 µM; to `CC(N1CCC(Oc2ccc3c(-c4ncc(C(=O)NC5(C(=O)O)C6CC7CC(C6)CC5C7)c(C(F)(F)F)n4)cn(C4CCC(F)(F)CC4)c3c2)CC1)C(F)(F)F` (racemic) [Compound I-449], less than 0.01 µM.
Same read-out and setting: in the case of `O=C(NC1(C(=O)O)C2CC3CC(C2)CC1C3)c1ccc(N2CCc3cc(OCCC4CCOCC4)cnc32)cc1C(F)(F)F` (stereo not shown) [Compound I-125] it was 0.01 to 0.1 µM; in that of `O=C(NC1(C(=O)O)CCCCC1)c1cnc(N2CC3(CCN(C(=O)OCc4ccccc4)CC3)c3cc(OCCC4CCOCC4)ccc32)nc1C(F)(F)F` [Compound I-61], less than 0.01 µM.
Regarding `O=C(NC1(C(=O)O)C2CC3CC(C2)CC1C3)c1cnc(-c2cn(C3CCC(F)(F)CC3)c3cc(O[C@H]4CCN(CC(F)(F)F)C4)ccc23)nc1C(F)(F)F` (stereo partly shown) [Compound I-375], the EC50 was less than 0.01 µM.
`O=C(NC1(C(=O)O)C2CC3CC(C2)CC1C3)c1cnc(N2CC3(CCOCC3)c3cc(OCC(F)(F)F)ccc32)nc1C(F)(F)F` (stereo not shown) [Compound I-381]: the EC50 is less than 0.01 µM.
Turning to `O=C(NC1(C(=O)O)C2CC3CC(C2)CC1C3)c1cnc(-c2cn(C3CCC(F)(F)CC3)c3cc(OC4CCC5(CC4)CN(c4ncccn4)C5)ccc23)nc1C(F)(F)F` (stereo not shown) [Compound I-369], the EC50 is less than 0.01 µM.
Regarding `O=C(NC1(C(=O)O)C2CC3CC(C2)CC1C3)c1cnc(-c2cn(-c3ncccn3)c3cc(OC4CCN(c5ncc(F)cn5)CC4)ccc23)nc1C(F)(F)F` (stereo not shown) [Compound I-468], the EC50 is less than 0.01 µM.
On the same count and under the same terms, to `O=C(NC1(C(=O)O)C2CC3CC(C2)CC1C3)c1cnc(-c2cn(C3CCC(F)(F)CC3)c3ccc(OC4CCN(C5COC5)CC4)cc23)nc1C(F)(F)F` (stereo not shown) [Compound I-225] belongs 0.01 to 0.1 µM; to `CC(C)(C)OC(=O)N1CCC(Oc2ccc3c(c2)CCN3c2ncc(C(=O)NC3(C(=O)O)CCCCC3)c(C(F)(F)F)n2)CC1` [Compound I-32], 0.01 to 0.1 µM.
In the case of `O=C(NC(C(=O)O)C1CCCCC1)c1cnc(N2CCc3cc(OC4CCN(c5ncccn5)CC4)ccc32)nc1C(F)(F)F` (racemic) [Compound I-50], the EC50 lay in the range of 0.01 to 0.1 µM.
For the molecule `CC(C)(F)c1nc(N2CCc3cc(OCCC4CCOCC4)ccc32)ncc1C(=O)NC1(C(=O)O)C2CC3CC(C2)CC1C3` (stereo not shown) [Compound I-179], the EC50 was less than 0.01 µM.

Still in this assay, the particulars now being: inhibitory effect against RSV type A (RSV A2 strain), HEp-2 cells, CPE inhibition; read-out: EC50.
Turning to `COc1cccc(-n2cc(-c3ccc(C(=O)NC4(C(=O)O)C5CC6CC(C5)CC4C6)c(C(F)(F)F)n3)c3ccc(OC4CCN(c5ncccn5)CC4)cc32)n1` (stereo not shown) [Compound I-296], the EC50 was less than 0.01 µM.
`COc1cccnc1-n1cc(-c2ccc(C(=O)NC3(C(=O)O)C4CC5CC(C4)CC3C5)c(C(F)(F)F)n2)c2ccc(OC3CCN(c4ncccn4)CC3)cc21` (stereo not shown) [Compound I-325]: the concentration giving a half-maximal response (EC50) was less than 0.01 µM.
Regarding `O=C(NC1(C(=O)O)C2CC3CC(C2)CC1C3)c1ccc(-c2cn(-c3ccncc3F)c3cc(OC4CCN(c5ncccn5)CC4)ccc23)nc1C(F)(F)F` (stereo not shown) [Compound I-312], the concentration giving a half-maximal response (EC50) is less than 0.01 µM.
For the molecule `Cn1cc2c(n1)CCN(Cc1ccc3c(c1)C1(CCOCC1)CN3c1ncc(C(=O)NC3(C(=O)O)C4CC5CC(C4)CC3C5)c(C(F)(F)F)n1)C2` (stereo not shown) [Compound I-351], the EC50 is 0.01 to 0.1 µM.
`O=C(NC1(C(=O)O)C2CC3CC(C2)CC1C3)c1cnc(N2CC3(CCOCC3)c3cc(/C=C/CC4CCOCC4)ccc32)nc1C(F)(F)F` (stereo not shown) [Compound I-110]: the EC50 was less than 0.01 µM.
For the molecule `N#Cc1cccc(-n2cc(-c3ccc(C(=O)NC4(C(=O)O)C5CC6CC(C5)CC4C6)c(C(F)(F)F)n3)c3ccc(OC4CCN(c5ncccn5)CC4)cc32)c1` (stereo not shown) [Compound I-336], the EC50 is less than 0.01 µM.
